We go through 50 compounds from US10093678B2, “Azaspiro derivatives as TRPM8 antagonists” (RaQualia Pharma Inc., priority 2014, dated 2018).

The term IC50 denotes the concentration that gives 50% inhibition.

Structures are written as SMILES.

For this test, the target named is T1, human TRPM8 (Homo sapiens, UniProt Q7Z2W7).
T1 construct: expressed in transfected cells; host or cells: HEK293
T1 sequence (Q7Z2W7 whole entry): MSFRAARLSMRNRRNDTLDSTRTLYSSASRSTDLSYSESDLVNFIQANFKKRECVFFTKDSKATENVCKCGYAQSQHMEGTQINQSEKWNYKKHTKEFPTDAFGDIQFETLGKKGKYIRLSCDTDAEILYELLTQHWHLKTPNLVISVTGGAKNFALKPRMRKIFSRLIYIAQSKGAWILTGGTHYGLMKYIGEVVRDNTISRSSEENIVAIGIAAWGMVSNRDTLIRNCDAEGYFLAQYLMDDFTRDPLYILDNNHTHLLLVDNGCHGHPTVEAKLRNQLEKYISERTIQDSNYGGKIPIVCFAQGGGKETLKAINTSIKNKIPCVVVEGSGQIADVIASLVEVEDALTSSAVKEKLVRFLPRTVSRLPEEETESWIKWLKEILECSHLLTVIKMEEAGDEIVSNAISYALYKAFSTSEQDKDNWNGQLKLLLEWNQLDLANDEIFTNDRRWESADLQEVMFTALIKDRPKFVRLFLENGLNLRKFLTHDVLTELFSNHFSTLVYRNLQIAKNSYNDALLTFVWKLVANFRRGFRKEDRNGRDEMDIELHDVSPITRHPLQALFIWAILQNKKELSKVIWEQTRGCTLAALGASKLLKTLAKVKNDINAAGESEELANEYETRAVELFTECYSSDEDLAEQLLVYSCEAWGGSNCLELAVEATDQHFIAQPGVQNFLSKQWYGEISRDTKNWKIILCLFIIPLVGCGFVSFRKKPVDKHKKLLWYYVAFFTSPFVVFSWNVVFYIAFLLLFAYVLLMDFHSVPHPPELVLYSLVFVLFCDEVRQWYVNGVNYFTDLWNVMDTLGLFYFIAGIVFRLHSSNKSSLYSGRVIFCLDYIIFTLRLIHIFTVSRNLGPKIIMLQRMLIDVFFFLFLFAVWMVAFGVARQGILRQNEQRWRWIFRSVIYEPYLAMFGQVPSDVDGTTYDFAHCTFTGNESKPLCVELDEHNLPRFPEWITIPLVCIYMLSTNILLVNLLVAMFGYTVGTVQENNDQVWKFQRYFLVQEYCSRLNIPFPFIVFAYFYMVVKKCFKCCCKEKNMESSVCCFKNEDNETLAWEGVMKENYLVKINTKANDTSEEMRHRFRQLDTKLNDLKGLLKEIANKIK
The experiment in a line: Menthol-induced Ca2+ influx in HEK293 cells stably expressing human TRPM8. Format: cell-based. The note with it: 30 microM menthol-induced Ca2+ influx, read-out: IC50 against TRPM8. A digest of the protocol: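 IC50 values were fitted from 11-point dose-response data averaged over duplicate wells. Compound was added for 5 min to Fluo4-loaded HEK293 cells carrying stable human TRPM8, in HBSS/HEPES pH 7.4 with probenecid. Intracellular Ca2+ change after 30 microM menthol addition was then imaged on FDSS.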
With `Cc1c(C(=O)CN2C(=O)NC3(CCC(F)(F)CC3)C2=O)cn(C)c1-c1ccccc1C#N` [Example 16-25], the IC50 was under 100 nM. In the case of `Cc1cc(C(=O)CN2C(=O)NC3(CCC(F)(F)CC3)C2=O)n(C)c1-c1ccccc1CO` [Example 16-8], the IC50 is under 100 nM. Turning to `O=C(CN1C(=O)NC2(CCC(F)(F)CC2)C1=O)c1ccc(-n2cnc3ccccc32)cc1` [Example 5-7], the IC50 was under 10 nM. On to `Cc1cc(C(=O)CN2C(=O)NC3(CCC(F)(F)CC3)C2=O)c(C)n1-c1noc2ccccc12` [Example 3-18], for which the IC50 was under 100 nM.

Regarding `O=C(CN1C(=O)NC2(CCC(F)(F)CC2)C1=O)c1ccc(Sc2ccccc2)nc1` [Example 20-9], the IC50 is under 500 nM. The value for `Cc1cnc(C)c(-c2ccc(C(=O)CN3C(=O)NC4(CCC(F)(F)CC4)C3=O)cc2)n1` [Example 6-7] was under 10 nM; that for `Cc1cncc(-n2c(C)cc(C(=O)CN3C(=O)NC4(CCCCC4)C3=O)c2C)c1` [Example 3-11] was under 100 nM; that for `Cc1ncsc1-c1ccc(C(=O)CN2C(=O)NC3(CCC(F)(F)CC3)C2=O)cc1` [Example 6-12] was under 100 nM.

Consider `Cc1ccc2nc(CO)n(-c3ccc(C(=O)CN4C(=O)NC5(CCC(F)(F)CC5)C4=O)cc3)c2n1` [Example 28-5, 8,8-difluoro-3-(2-(4-(2-(hydroxymethyl)-5-methyl-3H-imidazo[4,5-b]pyridin-3-yl)phenyl)-2-oxoethyl)-1,3-diazaspiro[4,5]decane-2,4-dione], for which the IC50 was under 100 nM.

With `N#Cc1ncccc1-c1ccc(C(=O)CN2CC3(CCC(F)(F)CC3)OC2=O)cc1` [Example 7-20], the IC50 was under 500 nM. The value for `Cc1c(C(=O)CN2C(=O)NC3(CCC(F)(F)CC3)C2=O)ccn1-c1ccccc1` [Example 4-6] was under 100 nM; that for `Cc1cccc(-n2c(C)cc(C(=O)CN3C(=O)NC4(CCC(F)(F)CC4)C3=O)c2C)n1` [Example 3-13] was under 100 nM; that for `Cc1nccnc1-c1ccc(C(=O)CN2C(=O)NC3(CCC(F)(F)CC3)C2=O)cc1F` [Example 8-3] was under 100 nM. Take `O=C(CN1C(=O)NC2(CCC(F)(F)CC2)C1=O)c1ccc(-c2cccc3c2CC(O)C3)cc1` (centres unmarked) [Example 6-49]: the IC50 was under 500 nM. For the compound `O=C(CN1C(=O)NC2(CCC(F)(F)CC2)C1=O)c1ccc(-c2ncccc2F)cc1` [Example 6-27], the IC50 was under 100 nM. The value for `O=C(CN1C(=O)NC2(CCC(F)(F)CC2)C1=O)c1ccc(-n2cnc3nccnc32)cc1` [Example 19-37] was under 100 nM; that for `Cc1ccncc1-c1ccc(C(=O)CN2C(=O)NC3(CCCCC3)C2=O)cn1` [Example 9-1] was under 10 nM. As to `O=C(CN1C(=O)NC2(CCC(F)(F)CC2)C1=O)c1ccc(-c2cnc3cccnn23)cc1` [Example 6-116], the IC50 was under 100 nM.

Regarding `O=C(CN1C(=O)NC2(CCC(F)(F)CC2)C1=O)c1ccc(-c2cccc3cccnc23)nc1` [Example 9-13], the IC50 was under 100 nM. The value for `CN(c1cccc(C(F)(F)F)c1)c1ccc(C(=O)CN2C(=O)NC3(CCC(F)(F)CC3)C2=O)cn1` [Example 19-15] was under 500 nM; that for `Cc1ccncc1-c1ccc(C(=O)CN2C(=O)NC3(CCC(F)(F)CC3)C2=O)cc1` [Example 13-35] was under 10 nM; that for `Cn1c(C(=O)CN2C(=O)NC3(CCC(F)(F)CC3)C2=O)ccc1-c1cccc(C#N)c1` [Example 16-1] was under 100 nM. For the compound `O=C(CN1C(=O)NC2(CCC(F)(F)CC2)C1=O)c1ccc(-c2cccc3ccncc23)c(Cl)c1` [Example 13-29], the IC50 is under 100 nM. For the compound `N#Cc1ccccc1Cc1ccc(C(=O)CN2C(=O)NC3(CCC(F)(F)CC3)C2=O)cc1` [Example 6-120], the IC50 is under 500 nM. On to `Cc1sc(C(=O)CN2C(=O)NC3(CCC(F)(F)CC3)C2=O)c(C)c1-c1cccnc1` [Example 15-2], for which the IC50 was under 100 nM.

On to `Cc1ccncc1-c1ccc(C(=O)CN2CC3(CCCCC3)OC2=O)cc1` [Example 13-51], for which the IC50 is under 100 nM. As for `O=C(CN1C(=O)NC2(CCC(F)(F)CC2)C1=O)c1ccc(-c2ncn3ccccc23)cc1` [Example 6-64], the IC50 is under 500 nM. The value for `O=C(CN1C(=O)NC2(CCC(F)(F)CC2)C1=O)c1ccc(-c2cnccc2CO)c(F)c1` [Example 8-2] was under 100 nM; that for `Cc1nc(C(=O)CN2C(=O)NC3(CCC(F)(F)CC3)C2=O)sc1-c1ccccc1CO` [Example 18-4] was under 100 nM; that for `Cc1nc(C(=O)CN2C(=O)OC3(CCCCC3)C2=O)c(C)n1-c1ccccc1` [Example 2-4] was under 100 nM.

In the case of `Cc1ncccc1-c1ccc(C(=O)CN2C(=O)NC3(CCC(F)(F)CC3)C2=O)nc1` [Example 10-1], the IC50 is under 100 nM. Regarding `N#Cc1ncccc1-c1ccc(C(=O)CN2C(=O)NC3(CCC(F)(F)CC3)C2=O)cc1` [Example 6-15], the IC50 is under 100 nM. `Cc1ccccc1-c1ccc(C(=O)CN2C(=O)NC3(CCCCC3)C2=O)cc1C` [Example 13-6]: the IC50 is under 100 nM. For the compound `Cc1cncc(-c2ccc(C(=O)CN3C(=O)NC4(CCC(F)(F)CC4)C3=O)cc2)n1` [Example 6-28], the IC50 was under 100 nM. As to `Cc1ncccc1-c1cnc(C(=O)CN2C(=O)NC3(CCC(F)(F)CC3)C2=O)cn1` [Example 12-1], the IC50 is under 10 nM. Regarding `COc1cc(C(=O)CN2C(=O)NC3(CCC(F)(F)CC3)C2=O)ccc1-c1ccccc1C#N` [Example 5-5], the IC50 was under 100 nM.

As for `COc1ccncc1-c1ccc(C(=O)CN2C(=O)NC3(CCC(F)(F)CC3)C2=O)cc1` [Example 13-39], the IC50 is under 100 nM. In the case of `O=C(CN1C(=O)NC2(CCCCC2)C1=O)c1ccc(-c2cccnc2)cc1` [Example 13-2], the IC50 is under 100 nM. Consider `Cc1ncccc1-c1ccc(C(=O)CN2C(=O)NC3(CCCCC3)C2=O)cc1` [Example 7-1], for which the IC50 is under 10 nM. As for `O=C(CN1C(=O)NC2(CCC(F)(F)CC2)C1=O)c1ccc(-c2cccnc2CO)cc1` [Example 6-9], the IC50 was under 100 nM.

For `O=C(CN1C(=O)NC2(CCC(F)(F)CC2)C1=O)c1ccc(-c2nccc3cnccc23)cc1` [Example 6-37], the IC50 was under 100 nM. As for `O=C(CN1C(=O)NC2(CCC(F)(F)CC2)C1=O)c1ccc(-c2ccnc3[nH]ccc23)nc1` [Example 9-22], the IC50 is under 100 nM. Regarding `Cc1nc(C(=O)CN2C(=O)NC3(CCC(F)(F)CC3)C2=O)c(C)n1-c1ccccc1` [Example 2-2], the IC50 was under 100 nM. In the case of `O=C1CCc2c(cccc2-c2ccc(C(=O)CN3C(=O)NC4(CCC(F)(F)CC4)C3=O)cc2)N1` [Example 6-52], the IC50 is under 500 nM.

As to `COc1ccncc1-c1cnc(C(=O)CN2C(=O)NC3(CCC(F)(F)CC3)C2=O)cn1` [Example 12-5], the IC50 is under 100 nM. The value for `N#Cc1cnccc1-c1ccc(C(=O)CN2C(=O)NC3(CCC(F)(F)CC3)C2=O)cc1` [Example 6-98] was under 100 nM.

For the compound `Cc1nc(-c2ccc(C(=O)CN3C(=O)NC4(CCC(F)(F)CC4)C3=O)cc2)c2ccccc2n1` [Example 6-33], the IC50 was under 100 nM. With `O=C(CN1C(=O)NC2(CCCCC2)C1=O)c1ccc(-c2ncccc2CO)cc1` [Example 7-7], the IC50 was under 100 nM. The value for `O=C(CN1C(=O)NC2(CCC(F)(F)CC2)C1=O)c1ccc(-n2ncc3ccccc32)cc1` [Example 5-6] was under 100 nM. The figure for `CC(O)c1ccccc1-c1ccc(C(=O)CN2C(=O)NC3(CCC(F)(F)CC3)C2=O)cc1` (centres unmarked) [Example 6-40] is under 100 nM.
